Results on eight compounds are retold here after patent US20070203134A1, “Benzimidazole Acetonitriles” (APPLIED RESEARCH SYSTEMS ARS HOLDING N.V., priority 2004, published 2007).

In general, IC50 refers to the concentration needed to halve the response being measured.

Where only a bound is given, the exact number is not on record here.

human GSK3 beta, sequence (P49841 whole entry): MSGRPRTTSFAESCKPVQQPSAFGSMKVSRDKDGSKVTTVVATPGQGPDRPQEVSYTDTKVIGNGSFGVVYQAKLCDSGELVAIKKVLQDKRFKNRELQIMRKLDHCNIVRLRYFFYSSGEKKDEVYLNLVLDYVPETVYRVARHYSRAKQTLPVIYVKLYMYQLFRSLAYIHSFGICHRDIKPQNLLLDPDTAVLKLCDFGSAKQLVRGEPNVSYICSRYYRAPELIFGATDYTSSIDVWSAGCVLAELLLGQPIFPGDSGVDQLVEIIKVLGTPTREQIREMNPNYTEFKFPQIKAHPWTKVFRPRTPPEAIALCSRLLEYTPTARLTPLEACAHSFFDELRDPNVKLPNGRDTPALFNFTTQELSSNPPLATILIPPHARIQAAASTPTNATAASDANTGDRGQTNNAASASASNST

The first assay concerns db/db mice. Nature of the assay: Experimental model of type II diabetes (oral postprandial glycemia in db/db mice). Particulars: 50 mg/kg per os, 4 hrs after drug administration, compared to vehicle treated Group 1. It is filed as in vivo. The method, then: b) In Vivo Assay: Experimental Model of Type II Diabetes (oral Postprandial Glycemia in db/db Mice)
The following assay aims at determining the anti-diabetic effect of the test compounds of formula (I) in a model of postprandial glycemia in db/db mice, in vivo.
The assay was performed as follows:
A total of 24 db/db mice (about 8-9 weeks; obtained from IFFACREDO, l'Arbreste, France) were fasted during 20 hours.
2 groups, each consisting of 6 animals were formed: • Group 1: The animals were administered (per os) a dose of 10 mg/kg of vehicle. • Group 2: The animals were administered per os) a dose of 50 mg/kg of the test compound according to formula (D.
After oral administration of the compounds of formula (I) solubilized or suspended in CarboxyMethylCellulose (0.5%), Tween 20 (0.25%) and water as vehicle, the animals had access to commercial food (D04, UAR, Villemoisson/Orge, France) ad libitum. The diabetic state of the mice was verified by determining the blood glucose level before drug administration. Blood glucose and serum insulin levels were then determined 4 hrs after drug administration.
The determination of the blood glucose level was performed using a glucometer (Precision Q.I.D., Medisense, Abbot, ref. 212.62.31). […]
Changes in blood glucose and serum insulin of drug treated mice were expressed as a percentage of control (group 1: vehicle treated mice).
Regarding `CCN1/C(=C(\C#N)c2nc(NC3CCC3)ncc2C)Nc2ccccc21` [Example 3], the “blood glucose level reduced” value is given as “about 28%”.

Staying with this assay, now noted: serum insulin, 50 mg/kg per os, 4 hrs after drug administration, compared to vehicle treated Group 1.
With `CCN1/C(=C(\C#N)c2nc(NC3CCC3)ncc2C)Nc2ccccc21` [Example 3], the insulin level reduced result is listed as “about 58%”.

In another assay the target is human GSK3 beta (Homo sapiens, UniProt P49841). Nature of the assay: GSK3β in vitro kinase assay (33P-ATP phosphorylation of phospho GS2 peptide). It is filed as biochemical. The note with it: in vitro potency, read-out: IC50 (μM) GSK3beta. The method, then:
GSK3β Assay (see Bioorg. Med. Chem. Lett by Naerum et al. 12 p. 1525-1528 (2002))
In a final reaction volume of 25 μl, GSK3β (h) (5-10 mU) is incubated with 8 mM MOPS pH 7.0, 0.2 mM EDTA, 20 μM […](p)EDEEE (being the GSK3 substrate; a phospho GS2 peptide), 10 mM Mg Acetate and [γ-^33P-ATP] (Specific activity approx. 500 cpm/pmol, concentration as required). The reaction is initiated by the addition of Mg^2+ [γ-^33P-ATP]. After incubation for 40 minutes at room temperature, the reaction is stopped by the addition of 5 μl of a 3% phosphoric acid solution. 10 μl of the reaction is then spotted onto a P30 filtermat and washed three times for 5 minutes in 50 mM phosphoric acid and once in methanol prior to drying and the degree of phosphorylation of the substrate is determined by scintillation counting.
For `CCN1/C(=C(\C#N)c2nc(NC3CCCCCC3)ncc2C)Nc2ccccc21` [Example 12, (2Z)-[2-(cycloheptylamino)-5-methylpyrimidin-4-yl](1-ethyl-1,3-dihydro-2H-benzimidazol-2-ylidene)acetonitrile], the IC50 is less than 10 µM.

As to `N#C/C(=C1/Nc2ccccc2N1C1CCC1)c1ccnc(NCCCN2CCCC2=O)n1` [Example 15, (2Z)-(1-cyclobutyl-1,3-dihydro-2H-benzimidazol-2-ylidene)(2-{[3-(2-oxopyrrolidin-1-yl)propyl]amino}pyrimidin-4-yl)acetonitrile], the IC50 was less than 10 µM.

For `Cc1cnc(NC2CCCC2)nc1C(C#N)=C1Nc2ccccc2N1` [Example 28, [2-(cyclopentylamino)-5-methylpyrimidin-4yl](1,3-dihydro-2H-benzimidazol-2-ylidene)acetonitrile], the 50% inhibitory concentration (IC50) was less than 10 µM.

For the compound `CCN1/C(=C(\C#N)c2cc(NCCc3cccnc3)ncn2)Nc2ccccc21` [Example 46], the concentration for half-maximal inhibition (IC50) is less than 10 µM.

Turning to `CCN1/C(=C(\C#N)c2nc(NC(=O)CCCNC(=O)OC(C)(C)C)ncc2C)Nc2ccccc21` [Example 73, tert-butyl[4-({4-[(Z)-cyano(1-ethyl-1,3-dihydro-2H-benzimidazol-2-ylidene)methyl]-5-methylpyrimidin-2-yl}amino)-4oxobutyl]carbamate], the IC50 was less than 10 µM.

Consider `CCN1/C(=C(\C#N)c2nc(NC(=O)Cc3ccccc3OC)ncc2C)Nc2ccccc21` [Example 79, N-{4-[(Z)-cyano(1-ethyl-1,3-dihydro-2H-benzimidazol-2-ylidene)methyl]-5-methylpyrimidin-2-yl}-2-(2-methoxyphenyl)acetamide], for which the concentration for half-maximal inhibition (IC50) is less than 10 µM.

On to `CCN1/C(=C(\C#N)c2nc(NC(=O)C3CN(C(=O)OC(C)(C)C)CCO3)ncc2C)Nc2ccccc21` (stereo not drawn) [Example 84, tert-butyl 2-[({4-[(Z)-cyano(1-ethyl-1,3-dihydro-2H-benzimidazol-2-ylidene)methyl]-5-methylpyrimidin-2-yl}amino)carbonyl]morpholine-4-carboxylate], for which the concentration for half-maximal inhibition (IC50) was less than 10 µM.
